Data from US8329908B2, “Dual action antibiotics” (Morphochem Aktiengesellschaft fur Kombinatorische Chemie, priority 2001, dated 2012).

Key:
S. aureus (MSSA) = experiment: MIC against S. aureus (MSSA); type: cell-based
Method: (§1) All examples were tested against several gram positive and gram negative bacteria. They all have a broader and more pronounced activity than the corresponding quinolone and oxazolidinone as well as a 1+1 combination of these two compounds.

S. pneumoniae = experiment: MIC against S. pneumoniae; type: cell-based
Method: as §1

S. aureus (MRSA) = experiment: MIC against S. aureus (MRSA); type: cell-based
Method: as §1

E. faecium = experiment: MIC against E. faecium; type: cell-based
Method: as §1

E. faecalis = experiment: MIC against E. faecalis; type: cell-based
Method: as §1

Row | Compound | melting point | Typical MIC range (S. aureus (MSSA)) | Typical MIC range (S. pneumoniae) | Typical MIC range (S. aureus (MRSA)) | Typical MIC range (E. faecium) | Typical MIC range (E. faecalis)
1 | CC(=O)NC[C@H]1CN(c2ccc(N3CCN(c4cc5c(cc4F)c(=O)c(C(=O)O)cn5C4CC4)CC3)c(F)c2)C(=O)O1 (stereo in doubt) [Example 1, 7-(4-{4-[5-(acetylamino-methyl)-2-oxo-oxazolidin-3-yl]-2-fluoro-phenyl}-piperazin-1-yl)-1-cyclopropyl-6-fluoro-4-oxo-1,4-dihydro-quinoline-3-carboxylic acid] | 315 to 320 °C (dec.) |  |  |  |  | 
2 | CC(=O)NC[C@H]1CN(c2ccc(N3CCN(c4c(F)cc5c(=O)c(C(=O)O)cn6c5c4OCC6C)CC3)c(F)c2)C(=O)O1 (stereo partly drawn) [Example 2, 9-(4-{4-[5-(acetylamino-methyl)-2-oxo-oxazolidin-3-yl]-2-fluoro-phenyl}-piperazin-1-yl)-8-fluoro-3-methyl-6-oxo-2,3-dihydro-6H-1-oxa-3a-aza-phenalene-5-carboxylic acid] | 258 °C (dec.) |  |  |  |  | 
3 | O=C(O)c1cn(C2CC2)c2cc(N3CCNCC3)c(F)cc2c1=O [ciprofloxacin] |  | 0.125 to 1 mg/L | 1 to 4 mg/L | 0.5 to 32 mg/L | 0.25 to 32 mg/L | 0.5 to 32 mg/L
4 | CC(=O)NC[C@H]1CN(c2ccc(N3CCOCC3)c(F)c2)C(=O)O1 [linezolid] |  | 1 to 2 mg/L | 0.125 to 1 mg/L | 1 to 2 mg/L | 1 to 2 mg/L | 0.5 to 2 mg/L
